Results from ChEMBL document CHEMBL1201862, “PubChem BioAssay data set” (2004).
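96-well plates; 48 h exposure; 5 concentrations. Endpoints by linear interpolation between flanking doses. Not reached: highest tested concentration assigned. Abbreviation: GI50, concentration required for 50% inhibition of growth.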 Activity calls are given as the source filed them. Rule as the data show it: active = GI50 up to about 1.1 µM and inactive = higher.

Legend:
Assay in all cases: NCI-60 cell line screen, 48 h
SNB-75 = tested on: SNB-75
SK-MEL-5 = tested on: SK-MEL-5
SW-620 = tested on: SW-620
HOP-62 = tested on: HOP-62
MOLT-4 = tested on: MOLT-4
NCI-H226 = tested on: NCI-H226
UO-31 = tested on: UO-31
NCI-H23 = tested on: NCI-H23
OVCAR-4 = tested on: OVCAR-4
OVCAR-5 = tested on: OVCAR-5
HCT-15 = tested on: HCT-15
OVCAR-8 = tested on: OVCAR-8
ACHN = tested on: ACHN
K562 = tested on: K562
MCF7 = tested on: MCF7
COLO 205 = tested on: COLO 205
DU-145 = tested on: DU-145
NCI-H460 = tested on: NCI-H460

Compound: C=CC[C@@H]1C=C[C@@H](C(=O)OC)n2c(=O)n(-c3ccccc3)c(=O)n21
- GI50 (SNB-75): > 100 µM (inactive)
- GI50 (SK-MEL-5): > 100 µM (inactive)
- GI50 (SW-620): > 100 µM (inactive)
- GI50 (HOP-62): > 100 µM (inactive)
- GI50 (MOLT-4): > 100 µM (inactive)
- GI50 (NCI-H226): > 100 µM (inactive)
- GI50 (UO-31): > 100 µM (inactive)
- GI50 (NCI-H23): > 100 µM (inactive)
- GI50 (OVCAR-4): > 100 µM (inactive)
- GI50 (OVCAR-5): > 100 µM (inactive)
- GI50 (HCT-15): > 100 µM
- GI50 (OVCAR-8): > 100 µM (inactive)
- GI50 (ACHN): > 100 µM (inactive)
- GI50 (K562): > 100 µM (inactive)
- GI50 (MCF7): > 100 µM (inactive)
- GI50 (COLO 205): > 100 µM (inactive)
- GI50 (DU-145): > 100 µM (inactive)

Compound: Cc1ccc(S(=O)(=O)Oc2nc3nc4ccccc4nc3nc2OS(=O)(=O)c2ccc(C)cc2)cc1
- GI50 (SNB-75): > 100 µM (inactive)
- GI50 (NCI-H460): > 100 µM (inactive)
- GI50 (SK-MEL-5): > 100 µM (inactive)
- GI50 (NCI-H226): > 100 µM (inactive)
- GI50 (UO-31): 53.7 µM (inactive)
- GI50 (NCI-H23): > 100 µM (inactive)
- GI50 (OVCAR-5): > 100 µM (inactive)
- GI50 (HCT-15): > 100 µM
- GI50 (OVCAR-8): > 100 µM (inactive)
- GI50 (ACHN): > 100 µM (inactive)
- GI50 (MCF7): > 100 µM (inactive)
- GI50 (COLO 205): > 100 µM (inactive)
- GI50 (DU-145): > 100 µM (inactive)

Compound: O=C1c2ccccc2NC(=O)C2C1C(c1ccccc1)CC2(O)c1ccccc1 (stereo not drawn)
- GI50 (SNB-75): 0.0128 µM (active)
- GI50 (NCI-H460): 34.7 µM (inactive)
- GI50 (SK-MEL-5): 84.5 µM (inactive)
- GI50 (SW-620): 50.8 µM (inactive)
- GI50 (HOP-62): 79.1 µM (inactive)
- GI50 (MOLT-4): 15.4 µM (inactive)
- GI50 (NCI-H23): 62.7 µM (inactive)
- GI50 (OVCAR-4): 17.7 µM (inactive)
- GI50 (OVCAR-5): > 100 µM (inactive)
- GI50 (HCT-15): 50.5 µM
- GI50 (OVCAR-8): > 100 µM (inactive)
- GI50 (ACHN): 37 µM (inactive)
- GI50 (MCF7): > 100 µM (inactive)
- GI50 (COLO 205): 17.5 µM (inactive)
- GI50 (DU-145): > 100 µM (inactive)

Compound: N#Cc1ccc(Oc2nc3ccccc3nc2C(=O)O)cc1
- GI50 (SNB-75): > 100 µM (inactive)
- GI50 (NCI-H460): > 100 µM (inactive)
- GI50 (SK-MEL-5): > 100 µM (inactive)
- GI50 (SW-620): > 100 µM (inactive)
- GI50 (HOP-62): > 100 µM (inactive)
- GI50 (MOLT-4): > 100 µM (inactive)
- GI50 (NCI-H226): > 100 µM (inactive)
- GI50 (UO-31): > 100 µM (inactive)
- GI50 (NCI-H23): > 100 µM (inactive)
- GI50 (OVCAR-4): > 100 µM (inactive)
- GI50 (OVCAR-5): > 100 µM (inactive)
- GI50 (HCT-15): > 100 µM
- GI50 (OVCAR-8): > 100 µM (inactive)
- GI50 (ACHN): > 100 µM (inactive)
- GI50 (K562): > 100 µM (inactive)
- GI50 (COLO 205): > 100 µM (inactive)
- GI50 (DU-145): > 100 µM (inactive)

Compound: Cn1c2ccccc2c2ccc3c(c21)C(=O)c1ccccc1C3=O
- GI50 (SK-MEL-5): 13.2 µM (inactive)
- GI50 (SW-620): 28.2 µM (inactive)
- GI50 (HOP-62): 18 µM (inactive)
- GI50 (NCI-H226): 30.1 µM (inactive)
- GI50 (UO-31): 25.5 µM (inactive)
- GI50 (NCI-H23): 15.7 µM (inactive)
- GI50 (OVCAR-4): 17.5 µM (inactive)
- GI50 (OVCAR-5): > 100 µM (inactive)
- GI50 (HCT-15): 15.1 µM
- GI50 (OVCAR-8): 17.3 µM (inactive)
- GI50 (ACHN): 12.4 µM (inactive)
- GI50 (K562): 11.8 µM (inactive)
- GI50 (COLO 205): 26.6 µM (inactive)
- GI50 (DU-145): 84.5 µM (inactive)

Compound: CCOC(=O)c1ccc2nc(NC(=O)COC(=O)CSc3nc(C)cc(C)n3)sc2c1
- GI50 (SNB-75): 16.4 µM (inactive)
- GI50 (NCI-H460): 38.7 µM (inactive)
- GI50 (SK-MEL-5): 53.3 µM (inactive)
- GI50 (SW-620): > 100 µM (inactive)
- GI50 (HOP-62): 13.7 µM (inactive)
- GI50 (MOLT-4): 42.5 µM (inactive)
- GI50 (UO-31): 13.9 µM (inactive)
- GI50 (NCI-H23): > 100 µM (inactive)
- GI50 (OVCAR-4): 42.9 µM (inactive)
- GI50 (OVCAR-5): 20.4 µM (inactive)
- GI50 (HCT-15): 46.6 µM
- GI50 (OVCAR-8): 57.9 µM (inactive)
- GI50 (ACHN): 46.5 µM (inactive)
- GI50 (K562): > 100 µM (inactive)
- GI50 (MCF7): 35.9 µM (inactive)
- GI50 (COLO 205): 99.1 µM (inactive)
- GI50 (DU-145): 28.3 µM (inactive)

Compound: C[n+]1c(-c2ccc(/C=N/NC(=N)N/N=C/c3ccc(-c4cn5cc(Cl)ccc5[n+]4C)cc3)cc2)cn2cc(Cl)ccc21
- GI50 (SNB-75): > 100 µM (inactive)
- GI50 (NCI-H460): > 100 µM (inactive)
- GI50 (SK-MEL-5): > 100 µM (inactive)
- GI50 (SW-620): > 100 µM (inactive)
- GI50 (HOP-62): > 100 µM (inactive)
- GI50 (MOLT-4): > 100 µM (inactive)
- GI50 (UO-31): 69.8 µM (inactive)
- GI50 (OVCAR-4): > 100 µM (inactive)
- GI50 (OVCAR-5): > 100 µM (inactive)
- GI50 (HCT-15): > 100 µM
- GI50 (OVCAR-8): > 100 µM (inactive)
- GI50 (ACHN): > 100 µM (inactive)
- GI50 (K562): > 100 µM (inactive)
- GI50 (MCF7): > 100 µM (inactive)
- GI50 (COLO 205): > 100 µM (inactive)
